Data on 61 compounds can be found in patent US8962641B2, “Pyrimidine-substituted pyrrolidine derivatives, pharmaceutical compositions and uses thereof” (Boehringer Ingelheim International GmbH, priority 2013, dated 2015).

Sequence of human ACC2 (O00763 129-2458): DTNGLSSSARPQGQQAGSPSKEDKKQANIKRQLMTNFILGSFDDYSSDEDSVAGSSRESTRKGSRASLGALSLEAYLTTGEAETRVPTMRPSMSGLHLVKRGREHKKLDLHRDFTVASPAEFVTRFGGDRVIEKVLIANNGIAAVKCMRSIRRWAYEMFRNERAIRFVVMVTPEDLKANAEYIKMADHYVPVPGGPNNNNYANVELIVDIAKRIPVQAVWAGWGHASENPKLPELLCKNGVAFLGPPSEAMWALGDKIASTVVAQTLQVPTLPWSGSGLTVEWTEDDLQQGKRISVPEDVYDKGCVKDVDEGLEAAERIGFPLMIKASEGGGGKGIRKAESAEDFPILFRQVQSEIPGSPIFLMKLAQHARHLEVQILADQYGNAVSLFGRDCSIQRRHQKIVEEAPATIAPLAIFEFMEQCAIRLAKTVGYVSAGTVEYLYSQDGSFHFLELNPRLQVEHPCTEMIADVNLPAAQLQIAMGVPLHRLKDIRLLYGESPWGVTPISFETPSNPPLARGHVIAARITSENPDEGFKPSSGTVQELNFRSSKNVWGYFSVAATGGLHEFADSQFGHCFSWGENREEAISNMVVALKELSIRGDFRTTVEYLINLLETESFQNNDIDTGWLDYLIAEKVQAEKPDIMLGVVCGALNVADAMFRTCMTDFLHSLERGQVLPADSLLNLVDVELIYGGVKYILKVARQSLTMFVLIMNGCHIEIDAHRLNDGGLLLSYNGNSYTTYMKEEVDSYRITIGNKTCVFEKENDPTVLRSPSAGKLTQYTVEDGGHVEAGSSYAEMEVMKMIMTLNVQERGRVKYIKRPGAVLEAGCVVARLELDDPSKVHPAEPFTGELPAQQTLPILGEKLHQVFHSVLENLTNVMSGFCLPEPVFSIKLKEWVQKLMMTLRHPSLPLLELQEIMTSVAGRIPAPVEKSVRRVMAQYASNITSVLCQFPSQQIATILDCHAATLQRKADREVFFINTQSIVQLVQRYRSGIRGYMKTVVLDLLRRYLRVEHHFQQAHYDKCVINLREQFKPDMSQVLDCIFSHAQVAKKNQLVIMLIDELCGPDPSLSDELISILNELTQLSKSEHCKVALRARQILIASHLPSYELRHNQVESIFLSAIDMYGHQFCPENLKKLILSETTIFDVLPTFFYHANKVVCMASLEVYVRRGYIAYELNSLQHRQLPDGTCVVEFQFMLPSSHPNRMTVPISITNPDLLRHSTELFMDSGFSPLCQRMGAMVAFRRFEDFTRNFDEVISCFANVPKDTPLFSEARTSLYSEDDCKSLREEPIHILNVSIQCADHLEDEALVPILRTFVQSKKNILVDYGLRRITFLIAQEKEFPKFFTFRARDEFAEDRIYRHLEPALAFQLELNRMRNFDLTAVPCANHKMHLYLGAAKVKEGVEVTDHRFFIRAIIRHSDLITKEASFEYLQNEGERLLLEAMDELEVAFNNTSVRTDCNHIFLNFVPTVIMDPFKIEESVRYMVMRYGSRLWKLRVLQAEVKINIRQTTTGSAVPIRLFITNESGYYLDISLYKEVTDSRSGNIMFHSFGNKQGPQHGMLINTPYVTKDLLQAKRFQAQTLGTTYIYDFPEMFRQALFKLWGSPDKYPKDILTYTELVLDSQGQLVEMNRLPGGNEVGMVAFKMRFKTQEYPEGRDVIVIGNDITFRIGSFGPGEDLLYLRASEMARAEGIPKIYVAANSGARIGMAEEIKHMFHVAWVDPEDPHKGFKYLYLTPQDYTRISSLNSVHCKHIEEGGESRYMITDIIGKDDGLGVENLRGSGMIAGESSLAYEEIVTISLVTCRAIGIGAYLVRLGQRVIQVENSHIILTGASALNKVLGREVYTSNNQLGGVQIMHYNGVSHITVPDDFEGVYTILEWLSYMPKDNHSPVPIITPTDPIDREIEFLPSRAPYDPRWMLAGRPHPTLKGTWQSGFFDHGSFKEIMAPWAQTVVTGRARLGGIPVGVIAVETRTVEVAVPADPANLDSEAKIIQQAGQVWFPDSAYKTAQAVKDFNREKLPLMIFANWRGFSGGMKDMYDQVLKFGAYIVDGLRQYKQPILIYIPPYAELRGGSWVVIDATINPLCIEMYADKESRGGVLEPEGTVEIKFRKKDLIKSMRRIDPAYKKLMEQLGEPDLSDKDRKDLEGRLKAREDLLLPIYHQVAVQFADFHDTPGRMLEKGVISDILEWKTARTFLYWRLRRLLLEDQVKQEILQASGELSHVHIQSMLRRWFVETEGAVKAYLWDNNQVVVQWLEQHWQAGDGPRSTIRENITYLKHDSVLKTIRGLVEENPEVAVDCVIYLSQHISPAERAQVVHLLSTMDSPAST

The assay addresses human ACC2 (Homo sapiens (Human), UniProt O00763). Put plainly: ACC2 assay (spectrophotometric 384 well assay, NADH-linked kinetic method). The format is biochemical. The following applies: hACC2 construct lacking 128 N-terminal amino acids; coupled lactate dehydrogenase/pyruvate kinase reaction, 340 nm, 25° C. On the procedure: Spectrophotometric 384 Well Assay
Malonyl CoA formation by acetyl CoA carboxylases is stoichometrically linked to the consumption of ATP. ACC2 activity is measured in a NADH-linked kinetic method measuring ADP generated during the ACC reaction using a coupled lactate dehydrogenase/pyruvate kinase reaction.
The protein is then expressed in insect cells using a baculoviral expression system. Protein purification is performed by anion exchange.
All compounds are dissolved in dimethyl sulfoxide (DMSO) to a concentration of 10 mM.
The enzymatic reaction is then started by addition of a mixture of NADH, acetyl Coenzyme A (both 200 μM f.c.) and ATP (500 uM f.c.). The decrease of the optical density (slope S) is then determined at 25° C. at a wavelength of 340 nm over 15 minutes in a spectrophotometric reader.
Each assay microtiter plate contains wells with vehicle instead of compound as controls for the non-inhibited enzyme (100% CTL; ‘HIGH’) and wells without acetyl-CoA as controls for non-specific NADH degradation (0% CTL; ‘LOW’).
Broadly, the IC50 is the concentration needed to halve the response being measured. `CCCN(C)c1nccc(N2CC[C@@H](Oc3ccc([C@H](C)NC(C)=O)cc3)C2)n1` [Example 8.6] registered a half-maximal inhibitory concentration (IC50) of 102 nM.

`CCCNc1ncc(Cl)c(N2CC[C@@H](Oc3ccc([C@H](C)NC(C)=O)cc3)C2)n1` [Example 8.55] came in with an IC50 of 987 nM.

For the compound `CNC(=O)N[C@@H](C)c1ccc(OC2CCN(c3ccnc(N4CCOCC4)n3)C2)cc1` (stereo partly shown) [Example 3.8], the midpoint of inhibition, the IC50, lay at 260 nM.

Compound `CC(=O)N[C@@H](C)c1ccc(O[C@@H]2CCN(c3nc(N(C)C4CCCOC4)ncc3Cl)C2)cc1` (stereo partly shown) [Example 8.255] had an IC50 of 303 nM.

In turn, `CCN(CCC#N)c1ncc(Cl)c(N2CC[C@@H](Oc3ccc([C@H](C)NC(C)=O)cc3)C2)n1` [Example 8.149] displayed an IC50 of 387 nM.

As for `CC(=O)N[C@@H](C)c1ccc(O[C@@H]2CCN(c3ccnc(N4CCC(C)(O)C4)n3)C2)cc1` (stereo partly shown) [Example 8.214], half-maximal inhibition (IC50) was put at 865 nM.

Take `CC(=O)N[C@@H](C)c1ccc(O[C@@H]2CCN(c3nc(N(C)C4CCCC4)ncc3Cl)C2)cc1` [Example 8.124]: the IC50 was 111 nM.

For the compound `CC(=O)N[C@@H](C)c1ccc(O[C@@H]2CCN(c3nc(NCC4CC4)ncc3F)C2)cc1` [Example 8.303], it took 301 nM to reach half-maximal inhibition (IC50).

The compound `CC(=O)N[C@@H](C)c1ccc(O[C@@H]2CCN(c3nc(N4CCCC4)ncc3F)C2)cc1` [Example 8.12] returned an IC50 of 67 nM.

Compound `CC(=O)N[C@@H](C)c1ccc(O[C@@H]2CCN(c3nc(N(C)CCC#N)ncc3F)C2)cc1` [Example 8.64] gave an IC50 of 745 nM.

Consider `CC(=O)N[C@@H](C)c1ccc(O[C@@H]2CCN(c3nc(N(C)CCC(C)(C)O)ncc3F)C2)cc1` [Example 8.32], for which it took 1070 nM to reach half-maximal inhibition (IC50).

On to `CC(=O)N[C@@H](C)c1ccc(O[C@@H]2CCN(c3ncnc(N(C)CC(F)F)c3Cl)C2)cc1` [Example 8.115], for which half-maximal inhibition (IC50) was put at 166 nM.

Consider `C[C@H](NC(=O)N(C)C)c1ccc(O[C@H]2CCN(c3nc(N4CCOCC4)ncc3F)C2)cc1` [Example 3.18], for which the IC50 worked out at 113 nM.

`CC(=O)N[C@@H](C)c1ccc(O[C@@H]2CCN(c3ccnc(N4CC(F)(F)C4)n3)C2)cc1` [Example 8.45] registered an IC50 of 192 nM.

For the compound `CC(=O)N[C@@H](C)c1ccc(O[C@@H]2CCN(c3ncnc(NCC4CCCCO4)c3Cl)C2)cc1` (stereo partly shown) [Example 8.316], inhibition was half-maximal at 580 nM (IC50).

`CC(=O)N[C@@H](C)c1ccc(O[C@@H]2CCN(c3ncnc(N4C[C@@H]5CC[C@@H](C4)O5)c3F)C2)cc1` [Example 8.278] returned an IC50 of 673 nM.

`C[C@H](NC(=O)C(F)F)c1ccc(OC2CCN(c3ncnc(OCC4CC4)c3F)C2)cc1` (stereo partly shown) [Example 5.3]: the IC50 stood at 65 nM.

`CC(=O)N[C@@H](C)c1ccc(O[C@@H]2CCN(c3ncnc(N4CCOCC4)c3F)C2)cc1` [Example 8.143] registered an IC50 of 429 nM.

Compound `CC(=O)N[C@@H](C)c1ccc(O[C@@H]2CCN(c3nc(N4CCc5nocc5C4)ncc3F)C2)cc1` [Example 8.238] yielded a half-maximal inhibitory concentration (IC50) of 534 nM.

In turn, `CC(=O)N[C@@H](C)c1ccc(O[C@@H]2CCN(c3ccnc(N4CC[C@H](F)C4)n3)C2)cc1` [Example 8.265] came in with an IC50 of 379 nM.

Compound `C[C@H](NC(=O)N(C)C)c1ccc(O[C@H]2CCN(c3nc(N4CCC5(CC5)C4)ncc3F)C2)cc1` [Example 3.16] yielded an IC50 of 104 nM.

As to `CC(=O)N[C@@H](C)c1ccc(O[C@@H]2CCN(c3nc(N(C)CC4CC4)ncc3F)C2)cc1` [Example 8.9], it took 33 nM to reach half-maximal inhibition (IC50).

`CC(=O)N[C@@H](C)c1ccc(O[C@@H]2CCN(c3nc(N(C)CC4CC4)ncc3Cl)C2)cc1` [Example 8.126] displayed an IC50 of 58 nM.

Take `CCCOc1ncnc(N2CC[C@@H](Oc3ccc([C@H](C)NC(C)=O)cc3)C2)c1Cl` [Example 7.21]: the IC50 worked out at 45 nM.

With `COc1cccc(N(C)c2nccc(N3CC[C@@H](Oc4ccc([C@H](C)NC(C)=O)cc4)C3)n2)c1` [Example 8.39], the midpoint of inhibition, the IC50, lay at 452 nM.

`CCCOc1ncnc(N2CC[C@@H](Oc3ccc([C@H](C)NC(C)=O)cc3)C2)c1C` [Example 7.23] displayed an IC50 of 120 nM.

Regarding `CC(=O)N[C@@H](C)c1ccc(O[C@@H]2CCN(c3ncnc(OC4CCCC4)c3F)C2)cc1` [Example 7.47], half-maximal inhibition (IC50) was put at 58 nM.

Regarding `CC(=O)N[C@@H](C)c1ccc(O[C@@H]2CCN(c3ncnc(OCC(C)C)c3F)C2)cc1` [Example 7.28], 69 nM corresponded to half-maximal inhibition (IC50).

In turn, `CC(=O)N[C@@H](C)c1ccc(O[C@@H]2CCN(c3ncnc(N(C)CC(F)F)c3F)C2)cc1` [Example 8.132] returned an IC50 of 206 nM.

`CCN(C)c1ncc(C)c(N2CC[C@@H](Oc3ccc([C@H](C)NC(C)=O)cc3)C2)n1` [Example 8.53] came in with an IC50 of 452 nM.

For `CC(=O)N[C@@H](C)c1ccc(O[C@@H]2CCN(c3ncnc(N4CCC(F)(F)C4)c3F)C2)cc1` [Example 8.140], the IC50 was found to be 109 nM.

As to `COC(CN(C)c1nccc(N2CC[C@@H](Oc3ccc([C@H](C)NC(C)=O)cc3)C2)n1)OC` [Example 8.42], the IC50 worked out at 632 nM.

`COc1c(OCC(C)(C)O)ncnc1N1CC[C@@H](Oc2ccc([C@H](C)NC(C)=O)cc2)C1` [Example 7.58] registered an IC50 of 355 nM.

Compound `CCOc1ncc(F)c(N2CC[C@@H](Oc3ccc([C@H](C)NC(C)=O)cc3)C2)n1` [Example 7.12] came in with an IC50 of 585 nM.

`Cc1oncc1C(=O)N[C@@H](C)c1ccc(OC2CCN(c3ncnc(OCC4CC4)c3F)C2)cc1` (stereo partly shown) [Example 2.22]: the half-maximal inhibitory concentration (IC50) was 48 nM.

`CC(=O)N[C@@H](C)c1ccc(O[C@@H]2CCN(c3ccnc(N4C[C@@H](C)O[C@@H](C)C4)n3)C2)cc1` [Example 8.85] yielded a 50% inhibitory concentration (IC50) of 566 nM.

For the compound `COc1c(OCC2CC2(F)F)ncnc1N1CC[C@@H](Oc2ccc([C@H](C)NC(C)=O)cc2)C1` (stereo partly shown) [Example 7.56], the half-maximal inhibitory concentration (IC50) amounted to 75 nM.

In turn, `CC(=O)N[C@@H](C)c1ccc(O[C@@H]2CCN(c3ncnc(N(C)CC4CC4)c3F)C2)cc1` [Example 8.92] gave a half-maximal inhibitory concentration (IC50) of 100 nM.

`C[C@H](NC(=O)C(F)F)c1ccc(OC2CCN(c3ccnc(N(C)CC(F)F)n3)C2)cc1` (stereo partly shown) [Example 5.2] gave an IC50 of 49 nM.

As to `CC(=O)N[C@@H](C)c1ccc(O[C@@H]2CCN(c3nc(N4CCCOCC4)ncc3F)C2)cc1` [Example 8.216], the IC50 stood at 125 nM.

On to `CCN(CC)c1nc(N2CC[C@@H](Oc3ccc([C@H](C)NC(C)=O)cc3)C2)ncc1F` [Example 6.13], for which the IC50 was found to be 510 nM.

`CC(=O)N[C@@H](C)c1ccc(O[C@@H]2CCN(c3ncnc(N4CCC(F)(F)C4)c3Cl)C2)cc1` [Example 8.114] yielded an IC50 of 80 nM.

`COCCCN(C)c1ncc(Cl)c(N2CC[C@@H](Oc3ccc([C@H](C)NC(C)=O)cc3)C2)n1` [Example 8.168]: the IC50 turned out to be 173 nM.

Consider `CC(=O)N[C@@H](C)c1ccc(O[C@@H]2CCN(c3nc(N4CCC[C@@H]4C)ncc3Cl)C2)cc1` [Example 8.281], for which the IC50 was 372 nM.

`CC(=O)N[C@@H](C)c1ccc(O[C@@H]2CCN(c3ncnc(N4CCCC4)c3Cl)C2)cc1` [Example 8.103] returned an IC50 of 120 nM.

On to `CC(=O)N[C@@H](C)c1ccc(O[C@@H]2CCN(c3nc(N4CCC(F)(F)C4)ncc3F)C2)cc1` [Example 8.69], for which the midpoint of inhibition, the IC50, lay at 102 nM.

`CC(=O)N[C@@H](C)c1ccc(O[C@@H]2CCN(c3ncnc(N4CC(C)(O)C4)c3F)C2)cc1` [Example 8.237]: the IC50 is 749 nM.

Turning to `CCNC(=O)N[C@@H](C)c1ccc(O[C@@H]2CCN(c3nc(N4CCC5(CC5)C4)ncc3F)C2)cc1` [Example 3.17], the IC50 is 242 nM.

Compound `CC(=O)N[C@@H](C)c1ccc(O[C@@H]2CCN(c3nc(N(C)C4CCOCC4)ncc3Cl)C2)cc1` [Example 8.221] returned an IC50 of 269 nM.

Compound `CC(=O)N[C@@H](C)c1ccc(O[C@@H]2CCN(c3ccnc(N4CCC5(CC5)C4)n3)C2)cc1` [Example 8.76] yielded an IC50 of 155 nM.

`CC(=O)N[C@@H](C)c1ccc(O[C@@H]2CCN(c3ncnc(N4CCOC(C(F)(F)F)C4)c3F)C2)cc1` (stereo partly shown) [Example 8.198]: the IC50 is 549 nM.

Regarding `CCCN(C)c1ncc(Cl)c(N2CC[C@@H](Oc3ccc([C@H](C)NC(C)=O)cc3)C2)n1` [Example 8.47], 65 nM corresponded to half-maximal inhibition (IC50).

The compound `CC(=O)N[C@@H](C)c1ccc(O[C@@H]2CCN(c3nc(N(C)C)ncc3Cl)C2)cc1` [Example 8.51] showed an IC50 of 124 nM.

`C[C@H](NC(=O)OCC1CC1)c1ccc(O[C@@H]2CCN(c3ncnc(OCC4CC4)c3F)C2)cc1` [Example 7.36] had an IC50 of 2900 nM.

`CC(=O)N[C@@H](C)c1ccc(O[C@@H]2CCN(c3ncnc(NC4CCCC4)c3F)C2)cc1` [Example 8.119] registered an IC50 of 209 nM.

In turn, `CC(=O)N[C@@H](C)c1ccc(O[C@@H]2CCN(c3nc(N4CC(F)(F)C(F)(F)C4)ncc3F)C2)cc1` [Example 8.217] gave an IC50 of 145 nM.

The compound `CC(=O)Nc1nc(C)c(C(=O)N[C@@H](C)c2ccc(OC3CCN(c4ncnc(OCC5CC5)c4F)C3)cc2)s1` (stereo partly shown) [Example 2.19] showed an IC50 of 39 nM.

Compound `CCN(C)c1ncnc(N2CC[C@@H](Oc3ccc([C@H](C)NC(C)=O)cc3)C2)c1Cl` [Example 8.102] showed an IC50 of 88 nM.

`CC(=O)N[C@@H](C)c1ccc(O[C@@H]2CCN(c3nc(N(CCO)C4CC4)ncc3Cl)C2)cc1` [Example 8.211]: inhibition was half-maximal at 506 nM (IC50).

With `CC(=O)N[C@@H](C)c1ccc(O[C@@H]2CCN(c3ncnc(N(C)C(C)C)c3F)C2)cc1` [Example 8.135], the 50% inhibitory concentration (IC50) was determined as 131 nM.

Compound `CC(=O)N[C@@H](C)c1ccc(O[C@@H]2CCN(c3ccnc(N4CCCC(F)(F)C4)n3)C2)cc1` [Example 8.208] had an IC50 of 172 nM.
